{
  "source": "ChEMBL document CHEMBL1201862",
  "about": "“PubChem BioAssay data set” (2004)",
  "key": {"INS1": {"tested_on": "INS1", "experiment": "INS-1E survival protection against cytokine death – cell-based, luminescence, retest, dose response (AID 449756);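 note: cell death triggered by IL-1 beta plus TNF-alpha plus IFN-gamma mixture; protective hits raise ATP signal compared with cytokine alone wells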", "assay_type": "functional", "conditions": "Rattus norvegicus"}, "[1]": {"molecular_target": "5-hydroxytryptamine receptor 1E (Homo sapiens, UniProt P28566)", "sequence (P28566 whole entry)": "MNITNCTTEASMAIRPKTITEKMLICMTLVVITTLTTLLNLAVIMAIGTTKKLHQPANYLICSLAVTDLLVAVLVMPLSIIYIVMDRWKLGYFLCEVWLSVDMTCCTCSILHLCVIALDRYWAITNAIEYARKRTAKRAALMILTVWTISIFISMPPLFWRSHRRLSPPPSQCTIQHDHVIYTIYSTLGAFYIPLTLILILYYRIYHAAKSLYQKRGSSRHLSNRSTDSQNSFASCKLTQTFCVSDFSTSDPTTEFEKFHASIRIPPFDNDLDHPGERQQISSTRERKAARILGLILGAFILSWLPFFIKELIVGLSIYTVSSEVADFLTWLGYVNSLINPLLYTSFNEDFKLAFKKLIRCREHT", "experiment": "Counterscreen assay for S1P3 antagonists: Dose response cell-based high throughput screening assay to identify antagonists of the 5-Hydroxytryptamine Receptor Subtype 1E (5HT1E). [Related pubchem assays: 1429, 485 ]", "assay_type": "functional"}, "[2]": {"experiment": "Trypanosoma cruzi growth suppression in host cells – NIH3T3 host cells, beta-gal luminescence, confirmation (AID 2044);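 note: intracellular parasites grown in NIH/3T3 mouse fibroblasts as host cells; luminescent beta-galactosidase reporter signal from transgenic T. cruzi replicating inside host cells; inhibitors lower the luminescence signal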", "assay_type": "functional, cell-based"}, "[3]": {"molecular_target": "Sphingosine 1-phosphate receptor 3 (Homo sapiens, UniProt Q99500)", "sequence (Q99500 whole entry)": "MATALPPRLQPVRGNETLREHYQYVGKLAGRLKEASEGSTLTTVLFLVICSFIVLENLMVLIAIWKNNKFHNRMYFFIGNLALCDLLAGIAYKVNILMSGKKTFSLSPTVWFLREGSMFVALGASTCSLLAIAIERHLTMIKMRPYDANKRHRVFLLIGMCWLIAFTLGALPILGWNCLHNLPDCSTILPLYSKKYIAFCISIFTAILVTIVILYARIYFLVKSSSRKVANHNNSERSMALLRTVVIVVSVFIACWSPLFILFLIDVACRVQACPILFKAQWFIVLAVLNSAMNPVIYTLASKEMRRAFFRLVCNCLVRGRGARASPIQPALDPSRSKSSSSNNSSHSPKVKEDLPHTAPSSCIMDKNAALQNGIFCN", "experiment": "Dose response cell-based high throughput screening assay for antagonists of the Sphingosine 1-Phosphate Receptor 3 (S1P3). [Related pubchem assays: 1429, 485 ]", "assay_type": "functional"}, "[4]": {"experiment": "NIH3T3 cell viability loss – ATP luminescence, mouse fibroblasts, counter-screen, dose response (AID 2010);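 note: cells exposed to compound for about 90 hours before reading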", "assay_type": "functional, cell-based"}, "Wee1-like protein kinase": {"molecular_target": "Wee1-like protein kinase (Homo sapiens, UniProt P30291)", "experiment": "Dose Response Cell-based Assay for Inhibitors of Wee1 Degradation. [Related pubchem assays: 1410, 1321 ]", "assay_type": "functional"}, "BJ [5]": {"tested_on": "BJ", "experiment": "cells", "assay_type": "functional, cell-based", "conditions": "Homo sapiens"}, "[6]": {"molecular_target": "G2/mitotic-specific cyclin-B1 (Homo sapiens, UniProt P14635)", "experiment": "Counterscreen assay for inhibitors of Wee1 degradation: dose response cell-based assay to identify inhibitors of cyclin B degradation. [Related pubchem assays: 1410, 1321 ]", "assay_type": "functional"}, "[7]": {"experiment": "Luminescence Cell-Based Dose Retest to Confirm Inhibitors of Cancer Stem Cells. [Related pubchem assays (depositor defined):AID2717, AID2721]", "assay_type": "functional", "conditions": "Homo sapiens"}, "[8]": {"experiment": "DRD fibroblast viability loss – cell-based, non-viral oncogenic, luminescence, dose response (AID 1934)", "assay_type": "functional", "conditions": "Homo sapiens"}, "BJ [9]": {"tested_on": "BJ", "experiment": "BJ-TERT-LT-ST fibroblast viability loss – cell-based, RAS-independent, luminescence, dose response (AID 1935);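 note: BJ fibroblasts immortalized with TERT plus LT and ST oncogenes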", "assay_type": "functional", "conditions": "Homo sapiens"}, "BJ [10]": {"tested_on": "BJ", "experiment": "BJ-TERT fibroblast viability loss – cell-based, RAS-independent, luminescence, dose response (AID 1933)", "assay_type": "functional", "conditions": "Homo sapiens"}, "[11]": {"experiment": "toxicity toward HepG2 liver cells – cell-based, plate reader, cherry-pick, antagonist series, cytotoxicity control, dose response (AID 743416)", "assay_type": "functional"}, "[12]": {"experiment": "Luminescence-based counterscreen assay for KLF5 inhibitors: dose response cell-based high throughput screening assay to identify cytotoxic compounds using the IEC-6 intestinal epithelial cell line. [Related pubchem assays: 1700 (Primary screen.), 1834 (Confirmation screen.), 1858 (Summary AID.), 1905 (Counterscreen.)]", "assay_type": "functional"}, "[13]": {"experiment": "blockade of melanocortin 4 receptor signaling – cell-based, plate reader, cherry pick, counter-screen for LGR2 antagonist project, dose response (AID 743444);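 note: transfected HEK 293 cells stimulated with alpha-MSH peptide; potency of inhibitors of the alpha-MSH evoked signal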", "assay_type": "functional"}, "[14]": {"experiment": "blockers of bursicon-stimulated LGR2 cAMP reporter – cell-based, HEK293, CRE-luciferase reporter, cherry pick, set 2, dose response (AID 743343);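 note: transfected cells were stimulated with diluted bursicon conditioned medium after compound addition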", "assay_type": "functional"}, "[15]": {"experiment": "A549 cell cytotoxicity, dose response, cytotoxicity control, plate reader, cherry-pick, antagonist series (AID 743412)", "assay_type": "functional, cell-based"}, "[16]": {"experiment": "viability loss in HEK293 cells – cell-based, plate reader, cherry-picked samples, cytotoxicity control, dose response (AID 743446)", "assay_type": "functional"}, "Vero": {"tested_on": "Vero", "experiment": "Vero cell viability after compound exposure – synthesized analogs, set II, cytotoxicity control for West Nile virus antiviral project, SAR follow-up (AID 2402)", "assay_type": "functional", "conditions": "Chlorocebus sabaeus"}, "[17]": {"experiment": "A Cell Based Assay for the Identification of Probe candidate Compounds with Anti- Venezuelan Equine Encephalitis virus. [Related pubchem assays: 2409, 2419, 1621, 2238, 2405, 2024, 2065, 2402, 2414, 1635, 1650, 2244 ]", "assay_type": "functional"}, "[18]": {"molecular_target": "T1, Heat shock factor protein 1 (Mus musculus, UniProt P38532)", "T1 sequence (P38532 whole entry)": "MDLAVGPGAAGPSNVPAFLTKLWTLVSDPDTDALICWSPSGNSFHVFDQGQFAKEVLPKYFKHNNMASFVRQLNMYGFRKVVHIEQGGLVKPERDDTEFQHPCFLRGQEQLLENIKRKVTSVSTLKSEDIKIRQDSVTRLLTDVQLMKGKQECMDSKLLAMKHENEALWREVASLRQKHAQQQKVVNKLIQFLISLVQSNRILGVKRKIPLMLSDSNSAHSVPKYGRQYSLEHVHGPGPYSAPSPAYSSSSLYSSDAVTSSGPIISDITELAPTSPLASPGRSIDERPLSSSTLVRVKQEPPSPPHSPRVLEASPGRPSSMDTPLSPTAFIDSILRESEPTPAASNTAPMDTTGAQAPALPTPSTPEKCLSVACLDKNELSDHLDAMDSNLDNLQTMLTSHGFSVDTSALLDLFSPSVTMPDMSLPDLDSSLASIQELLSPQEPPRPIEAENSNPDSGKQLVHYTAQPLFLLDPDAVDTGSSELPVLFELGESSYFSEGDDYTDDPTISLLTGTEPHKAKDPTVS", "experiment": "decrease of HSF1-responsive luciferase luminescence – cell-based, NIH3T3, dose retest, confirmation (AID 2382);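 note: NIH3T3 fibroblasts with HSF1-driven luciferase reporter stressed by proteasome inhibitor MG132; luminescence from HSF1-driven luciferase expression after 8 hours of MG132 stress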", "assay_type": "functional"}, "[19]": {"molecular_target": "26S proteasome non-ATPase regulatory subunit 14 (Homo sapiens, UniProt O00487)", "sequence (O00487 whole entry)": "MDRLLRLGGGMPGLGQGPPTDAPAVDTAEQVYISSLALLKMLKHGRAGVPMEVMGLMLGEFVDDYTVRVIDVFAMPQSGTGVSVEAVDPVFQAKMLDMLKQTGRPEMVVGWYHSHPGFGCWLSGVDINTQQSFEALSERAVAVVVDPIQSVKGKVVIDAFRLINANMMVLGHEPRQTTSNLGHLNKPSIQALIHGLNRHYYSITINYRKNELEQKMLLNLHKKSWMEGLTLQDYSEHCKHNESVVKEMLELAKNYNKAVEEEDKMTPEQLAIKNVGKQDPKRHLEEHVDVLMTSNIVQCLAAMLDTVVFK", "experiment": "inhibition of proteasome subunit RPN11 – biochemical, fluorescence polarization, uHTS hits, confirmation (AID 602368)", "assay_type": "functional"}, "[20]": {"molecular_target": "T2, Voltage-gated N-type calcium channel alpha-1B subunit/Amyloid beta A4 precursor protein-binding family A member 1 (Homo sapiens, UniProt Q00975+Q02410)", "T2 sequence (Q00975 whole entry)": "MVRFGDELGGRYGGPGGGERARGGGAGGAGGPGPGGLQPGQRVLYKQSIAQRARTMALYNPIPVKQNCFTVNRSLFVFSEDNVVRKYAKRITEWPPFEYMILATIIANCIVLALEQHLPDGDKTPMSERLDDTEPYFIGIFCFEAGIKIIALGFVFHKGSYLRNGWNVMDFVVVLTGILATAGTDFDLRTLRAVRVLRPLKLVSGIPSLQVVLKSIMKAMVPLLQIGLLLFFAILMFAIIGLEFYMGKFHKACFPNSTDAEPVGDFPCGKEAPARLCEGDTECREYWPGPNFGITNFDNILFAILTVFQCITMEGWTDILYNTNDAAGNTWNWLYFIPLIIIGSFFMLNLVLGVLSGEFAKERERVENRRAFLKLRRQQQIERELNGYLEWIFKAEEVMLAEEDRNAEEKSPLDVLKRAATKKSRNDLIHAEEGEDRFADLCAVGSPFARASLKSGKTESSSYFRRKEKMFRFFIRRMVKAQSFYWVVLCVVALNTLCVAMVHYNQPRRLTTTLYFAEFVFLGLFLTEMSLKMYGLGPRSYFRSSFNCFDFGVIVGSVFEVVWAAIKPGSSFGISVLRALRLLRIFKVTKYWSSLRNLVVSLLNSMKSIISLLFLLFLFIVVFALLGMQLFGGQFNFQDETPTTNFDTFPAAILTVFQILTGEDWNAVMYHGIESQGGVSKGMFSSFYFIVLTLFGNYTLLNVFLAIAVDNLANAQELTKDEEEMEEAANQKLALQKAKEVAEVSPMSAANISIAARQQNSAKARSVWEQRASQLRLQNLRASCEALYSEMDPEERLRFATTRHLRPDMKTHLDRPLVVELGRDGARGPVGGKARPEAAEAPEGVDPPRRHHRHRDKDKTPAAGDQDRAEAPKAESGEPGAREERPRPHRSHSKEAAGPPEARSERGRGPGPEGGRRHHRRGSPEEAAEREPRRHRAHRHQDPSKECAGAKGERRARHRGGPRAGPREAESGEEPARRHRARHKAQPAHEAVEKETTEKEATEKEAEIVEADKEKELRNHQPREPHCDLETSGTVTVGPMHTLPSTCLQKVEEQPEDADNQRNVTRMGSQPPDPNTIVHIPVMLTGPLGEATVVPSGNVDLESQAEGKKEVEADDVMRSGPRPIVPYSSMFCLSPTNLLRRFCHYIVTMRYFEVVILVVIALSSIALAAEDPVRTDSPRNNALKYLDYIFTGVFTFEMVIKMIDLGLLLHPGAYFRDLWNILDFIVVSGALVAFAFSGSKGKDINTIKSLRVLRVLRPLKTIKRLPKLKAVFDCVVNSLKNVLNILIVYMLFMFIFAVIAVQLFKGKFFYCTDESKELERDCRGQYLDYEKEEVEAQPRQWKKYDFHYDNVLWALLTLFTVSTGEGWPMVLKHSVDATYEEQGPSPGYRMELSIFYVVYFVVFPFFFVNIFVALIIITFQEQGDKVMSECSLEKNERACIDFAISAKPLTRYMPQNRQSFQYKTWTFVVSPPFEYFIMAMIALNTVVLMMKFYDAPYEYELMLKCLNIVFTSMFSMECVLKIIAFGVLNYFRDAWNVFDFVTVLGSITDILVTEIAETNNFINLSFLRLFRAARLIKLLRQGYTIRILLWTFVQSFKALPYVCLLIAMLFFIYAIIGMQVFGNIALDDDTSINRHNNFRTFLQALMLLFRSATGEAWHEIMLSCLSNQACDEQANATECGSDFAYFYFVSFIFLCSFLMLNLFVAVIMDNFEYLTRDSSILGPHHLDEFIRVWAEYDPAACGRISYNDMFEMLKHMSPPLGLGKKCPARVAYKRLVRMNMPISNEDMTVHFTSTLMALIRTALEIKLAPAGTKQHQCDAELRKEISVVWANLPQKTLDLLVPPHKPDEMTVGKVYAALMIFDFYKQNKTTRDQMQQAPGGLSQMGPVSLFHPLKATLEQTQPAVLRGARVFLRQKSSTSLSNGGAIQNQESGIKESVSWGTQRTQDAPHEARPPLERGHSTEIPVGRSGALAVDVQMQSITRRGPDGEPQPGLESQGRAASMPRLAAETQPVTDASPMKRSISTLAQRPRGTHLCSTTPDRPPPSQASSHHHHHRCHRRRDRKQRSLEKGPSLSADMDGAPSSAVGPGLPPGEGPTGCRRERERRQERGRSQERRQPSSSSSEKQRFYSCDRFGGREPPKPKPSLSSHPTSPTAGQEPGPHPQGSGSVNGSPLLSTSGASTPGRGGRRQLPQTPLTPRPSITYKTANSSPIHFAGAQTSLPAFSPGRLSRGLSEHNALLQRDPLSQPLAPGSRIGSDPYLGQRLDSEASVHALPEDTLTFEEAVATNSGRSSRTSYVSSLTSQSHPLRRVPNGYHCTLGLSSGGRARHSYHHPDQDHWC", "T2 sequence (Q02410 whole entry)": "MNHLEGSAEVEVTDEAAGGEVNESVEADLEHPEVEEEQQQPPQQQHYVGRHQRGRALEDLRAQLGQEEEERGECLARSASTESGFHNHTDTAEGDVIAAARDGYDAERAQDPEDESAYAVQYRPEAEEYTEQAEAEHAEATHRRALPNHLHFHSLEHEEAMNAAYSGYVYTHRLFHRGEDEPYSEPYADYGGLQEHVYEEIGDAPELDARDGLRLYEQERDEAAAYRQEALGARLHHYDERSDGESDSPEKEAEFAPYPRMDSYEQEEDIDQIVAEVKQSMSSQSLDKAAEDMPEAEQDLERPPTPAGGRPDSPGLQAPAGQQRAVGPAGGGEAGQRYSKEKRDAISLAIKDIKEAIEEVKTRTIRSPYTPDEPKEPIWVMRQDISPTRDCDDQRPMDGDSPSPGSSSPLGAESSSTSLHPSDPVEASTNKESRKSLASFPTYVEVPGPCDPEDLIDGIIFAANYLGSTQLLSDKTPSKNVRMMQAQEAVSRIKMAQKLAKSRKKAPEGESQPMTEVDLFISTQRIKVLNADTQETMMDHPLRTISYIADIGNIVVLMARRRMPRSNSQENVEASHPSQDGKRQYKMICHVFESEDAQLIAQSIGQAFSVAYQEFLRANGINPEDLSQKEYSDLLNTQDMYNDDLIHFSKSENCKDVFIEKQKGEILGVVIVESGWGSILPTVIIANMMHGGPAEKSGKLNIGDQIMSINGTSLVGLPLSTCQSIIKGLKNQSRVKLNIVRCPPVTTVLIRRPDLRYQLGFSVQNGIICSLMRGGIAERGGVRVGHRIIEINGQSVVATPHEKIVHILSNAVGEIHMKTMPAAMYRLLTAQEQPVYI", "assay_type": "protein assay"}, "[21]": {"molecular_target": "72 kDa type IV collagenase (Homo sapiens, UniProt P08253)", "experiment": "Dose Response validation of uHTS RPN11 inhibitor hits using a MMP-2 Fluorescence assay.", "assay_type": "functional"}, "[22]": {"molecular_target": "T2, Voltage-gated N-type calcium channel alpha-1B subunit/Amyloid beta A4 precursor protein-binding family A member 1", "assay_type": "protein assay", "remark": "listed apart in the source"}, "[23]": {"molecular_target": "T3, Carboxy-terminal domain RNA polymerase II polypeptide A small phosphatase 1 (Homo sapiens, UniProt Q9GZU7)", "T3 sequence (Q9GZU7 whole entry)": "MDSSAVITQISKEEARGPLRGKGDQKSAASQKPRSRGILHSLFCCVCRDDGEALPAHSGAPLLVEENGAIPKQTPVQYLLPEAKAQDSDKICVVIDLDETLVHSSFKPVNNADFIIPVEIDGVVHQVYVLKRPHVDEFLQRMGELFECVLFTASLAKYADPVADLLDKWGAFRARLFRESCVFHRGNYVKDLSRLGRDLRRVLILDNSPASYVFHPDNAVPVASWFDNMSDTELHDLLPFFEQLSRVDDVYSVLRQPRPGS", "experiment": "CTDSP1 inhibitors, concentration-response, biochemical, absorbance readout, ultra-high-throughput screen actives (AID 540297)", "assay_type": "functional"}, "[24]": {"experiment": "A High Throughput Confirmatory Assay used to Identify Novel Compounds that Inhibit Mycobacterium Tuberculosis in the absence of Glycerol.", "assay_type": "functional"}, "Prothrombin": {"molecular_target": "Prothrombin (Bos taurus, UniProt P00735)", "experiment": "thrombin protease inhibitors – biochemical, fluorescence polarization, uHTS hits, dose response (AID 602369)", "assay_type": "functional"}, "Bcl-2-like protein 10": {"molecular_target": "Bcl-2-like protein 10 (Homo sapiens, UniProt Q9HD36)", "sequence (Q9HD36 whole entry)": "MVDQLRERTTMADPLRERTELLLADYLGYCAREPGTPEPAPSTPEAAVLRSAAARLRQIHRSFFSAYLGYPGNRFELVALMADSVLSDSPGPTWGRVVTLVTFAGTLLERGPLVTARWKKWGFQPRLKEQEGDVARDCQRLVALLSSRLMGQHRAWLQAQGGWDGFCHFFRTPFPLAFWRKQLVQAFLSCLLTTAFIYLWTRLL", "experiment": "Concentration-response of Bcl-B inhibitors by biochemical FP with TR3 (AID 1243)", "assay_type": "functional"}, "[25]": {"molecular_target": "Mothers against decapentaplegic homolog 3 (Homo sapiens, UniProt P84022)", "sequence (P84022 whole entry)": "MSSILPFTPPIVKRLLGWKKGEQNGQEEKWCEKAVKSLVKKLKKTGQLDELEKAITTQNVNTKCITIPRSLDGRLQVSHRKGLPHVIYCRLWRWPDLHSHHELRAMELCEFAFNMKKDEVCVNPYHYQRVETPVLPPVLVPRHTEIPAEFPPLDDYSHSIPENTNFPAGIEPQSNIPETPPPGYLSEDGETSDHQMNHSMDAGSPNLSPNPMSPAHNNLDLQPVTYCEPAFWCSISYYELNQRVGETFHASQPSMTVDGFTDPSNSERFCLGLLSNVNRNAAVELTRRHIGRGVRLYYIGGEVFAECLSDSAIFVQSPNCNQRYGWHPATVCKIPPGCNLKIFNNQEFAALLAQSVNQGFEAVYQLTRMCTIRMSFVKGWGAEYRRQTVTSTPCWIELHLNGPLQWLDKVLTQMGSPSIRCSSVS", "experiment": "blockers of Smad3 complex formation in lysate – cell lysate, secondary confirmation, chemiluminescent ELISA, HEK293 lysate, dose response (AID 1058)", "assay_type": "functional"}},
  "note": "Active and inactive are the calls of the source.",
  "data": [
    {"smiles": "O=C(Nc1ccc(OC(F)F)c(Cl)c1)C(c1ccccc1)c1ccccc1", "values": [
      {"measurement": "AC50", "setting": "INS1", "result": "8.95 µM (active)"},
      {"measurement": "IC50", "setting": "[1]", "result": "1.25 µM (active)"},
      {"measurement": "EC50", "setting": "[2]", "result": "1.29 µM (active)"},
      {"measurement": "IC50", "setting": "[3]", "result": "4.07 µM (active)"},
      {"measurement": "EC50", "setting": "[4]", "result": "> 60 µM (inconclusive)"}
    ]},
    {"smiles": "Cc1ccc(/C=N/NC(=O)c2ccc3c(c2)OCCO3)s1", "values": [
      {"measurement": "EC50", "setting": "Wee1-like protein kinase", "result": "> 49.7 µM (not active)"},
      {"measurement": "EC50", "setting": "BJ [5]", "result": "140 µM (active)"},
      {"measurement": "EC50", "setting": "[6]", "result": "> 49.7 µM (not active)"},
      {"measurement": "AC50", "setting": "[7]", "result": "1.48 µM (active)"},
      {"measurement": "EC50", "setting": "[8]", "result": "17.9 µM (active)"},
      {"measurement": "EC50", "setting": "BJ [9]", "result": "> 150 µM (inconclusive)"},
      {"measurement": "EC50", "setting": "BJ [10]", "result": "12.4 µM (active)"}
    ]},
    {"smiles": "Cc1ccc(C(=O)Nc2nc3ccccc3[nH]2)cc1", "values": [
      {"measurement": "AC50", "setting": "[11]", "result": "> 52 µM (inactive)"},
      {"measurement": "IC50", "setting": "[12]", "result": "> 13.3 µM (not active)"},
      {"measurement": "AC50", "setting": "[13]", "result": "1.45 µM (active)"},
      {"measurement": "AC50", "setting": "[14]", "result": "1.29 µM (active)"},
      {"measurement": "AC50", "setting": "[15]", "result": "35.2 µM (active)"},
      {"measurement": "AC50", "setting": "[16]", "result": "29.2 µM (active)"}
    ]},
    {"smiles": "COc1ccc(Cn2nc(C)cc2OC(=O)c2c(F)cccc2F)cc1", "values": [
      {"measurement": "CC50", "setting": "Vero", "result": "> 200 µM (active)"},
      {"measurement": "IC50", "setting": "[17]", "result": "> 133 µM (active)"}
    ]},
    {"smiles": "CC(=O)Oc1ccc(/C=N\\NC(=O)c2cc3c(ccc4ccccc43)o2)cc1", "values": [
      {"measurement": "EC50", "setting": "[18]", "result": "> 195 µM (not active)"},
      {"measurement": "IC50", "setting": "[19]", "result": "10.9 µM (active)"},
      {"measurement": "IC50", "setting": "[20]", "result": "4.06 µM (active)"},
      {"measurement": "IC50", "setting": "[21]", "result": "30 µM (active)"},
      {"measurement": "IC50", "setting": "[22]", "result": "> 50 µM (inactive)"},
      {"measurement": "IC50", "setting": "[23]", "result": "4.3 µM (active)"},
      {"measurement": "IC50", "setting": "[24]", "result": "> 100 µM (active)"},
      {"measurement": "IC50", "setting": "Prothrombin", "result": "75.6 µM (active)"}
    ]},
    {"smiles": "Cc1c(Cl)ccc2c1NC(C(=O)O)C1CC=CC21", "note": "(stereo not given)", "values": [
      {"measurement": "EC50", "setting": "Bcl-2-like protein 10", "result": "5.21 µM (active)"}
    ]},
    {"smiles": "COc1cccc(C(c2cc3c(cc2O)OCO3)N2CCN(C(c3cc4c(cc3O)OCO4)c3cccc(OC)c3O)CC2)c1O", "note": "(stereo not given)", "values": [
      {"measurement": "IC50", "setting": "[25]", "result": "> 40 µM (not active)"}
    ]}
  ]
}
